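Protocol summary: plate cells (96-well), add compound at 5 concentrations, incubate 48 h, interpolate endpoints linearly. Abbreviation: GI50, concentration required for 50% inhibition of growth. At the TGI there is no net growth.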
Legend:
Assay in all cases: growth of human tumour cells (NCI), 48 h
[1] = test system: 786-0 renal
[2] = test system: A498 renal
[3] = test system: A549 NSCLC
[4] = test system: ACHN renal
[5] = test system: BT-549 breast
[6] = test system: CAKI-1 renal
[7] = test system: CCRF-CEM leukemia
[8] = test system: COLO 205 colon
[9] = test system: DU-145 prostate
[10] = test system: EKVX NSCLC
[11] = test system: HCC-2998 colon
[12] = test system: HCT-116 colon
[13] = test system: HCT-15 colon
[14] = test system: HL-60(TB) leukemia
[15] = test system: HOP-62 NSCLC
[16] = test system: HOP-92 NSCLC
[17] = test system: HS 578T breast
[18] = test system: HT29 colon
[19] = test system: IGROV1 ovarian
[20] = test system: K-562 leukemia
[21] = test system: KM12 colon
[22] = test system: LOX IMVI melanoma
[23] = test system: M14 melanoma
[24] = test system: MCF7 breast
[25] = test system: MDA-MB-231 breast
[26] = test system: MDA-MB-435
[27] = test system: MOLT-4 leukemia
[28] = test system: NCI-H226 lung
[29] = test system: NCI-H23 lung
[30] = test system: NCI-H460 lung
[31] = test system: NCI-H522 lung
[32] = test system: NCI/ADR-RES ovarian
[33] = test system: OVCAR-3 ovarian
[34] = test system: OVCAR-4 ovarian
[35] = test system: OVCAR-5 ovarian
[36] = test system: OVCAR-8 ovarian
[37] = test system: PC-3 prostate
[38] = test system: RPMI-8226 leukemia
[39] = test system: RXF 393 renal
[40] = test system: SF-268 CNS
[41] = test system: SF-295 CNS
[42] = test system: SF-539 CNS
[43] = test system: SK-MEL-2 melanoma
[44] = test system: SK-MEL-28 melanoma
[45] = test system: SK-MEL-5 melanoma
[46] = test system: SK-OV-3 ovarian
[47] = test system: SN12C renal
[48] = test system: SNB-19 CNS
[49] = test system: SNB-75 CNS
[50] = test system: SR leukemia
[51] = test system: SW-620 colon
[52] = test system: T-47D breast
[53] = test system: TK-10 renal
[54] = test system: UACC-257 melanoma
[55] = test system: UACC-62 melanoma
[56] = test system: UO-31 renal
[57] = test system: MALME-3M melanoma
[58] = test system: U251 CNS

## C=C(CN1C(=O)CN(C)C1=O)c1ccc(C(=O)Nc2ccccc2N)cc1
[1]
  GI50: 30.1 µM
  TGI: > 100 µM
[2]
  GI50: 4.3 µM
  TGI: 31.2 µM
[3]
  GI50: 25.4 µM
  TGI: > 100 µM
[4]
  GI50: 20.9 µM
  TGI: > 100 µM
[5]
  GI50: 61.8 µM
  TGI: > 100 µM
[6]
  GI50: 18.6 µM
  TGI: 58.7 µM
[7]
  GI50: 11.6 µM
  TGI: 87.3 µM
[8]
  GI50: 9.24 µM
  TGI: 44.8 µM
[9]
  GI50: 25.9 µM
  TGI: > 100 µM
[10]
  GI50: 82.3 µM
  TGI: > 100 µM
[11]
  GI50: 22 µM
  TGI: 54.3 µM
[12]
  GI50: 6.7 µM
  TGI: 36.3 µM
[13]
  GI50: 40.9 µM
  TGI: > 100 µM
[14]
  GI50: 4.93 µM
  TGI: 61.1 µM
[15]
  GI50: 17.6 µM
  TGI: > 100 µM
[16]
  GI50: 26.5 µM
  TGI: > 100 µM
[17]
  GI50: 22.5 µM
  TGI: > 100 µM
[18]
  GI50: 10.9 µM
  TGI: 41.5 µM
[19]
  GI50: 12.3 µM
  TGI: > 100 µM
[20]
  GI50: 5.9 µM
  TGI: 74.5 µM
[21]
  GI50: 28.6 µM
  TGI: > 100 µM
[22]
  GI50: 18.2 µM
  TGI: 69.9 µM
[23]
  GI50: 29.8 µM
  TGI: > 100 µM
[24]
  GI50: 12.7 µM
  TGI: > 100 µM
[25]
  GI50: 36.3 µM
  TGI: > 100 µM
[26]
  GI50: 11.3 µM
  TGI: 54.1 µM
[27]
  GI50: 7.29 µM
  TGI: 63.3 µM
[28]
  GI50: 23.6 µM
  TGI: > 100 µM
[29]
  GI50: 26.8 µM
  TGI: > 100 µM
[30]
  GI50: 15.9 µM
  TGI: > 100 µM
[31]
  GI50: 4.04 µM
  TGI: 36.2 µM
[32]
  GI50: 12.5 µM
  TGI: > 100 µM
[33]
  GI50: 24.8 µM
  TGI: > 100 µM
[34]
  GI50: 4.65 µM
  TGI: 35.8 µM
[35]
  GI50: 3.56 µM
  TGI: 85.2 µM
[36]
  GI50: 6.78 µM
  TGI: > 100 µM
[37]
  GI50: 12 µM
  TGI: > 100 µM
[38]
  GI50: 2.32 µM
  TGI: 14.8 µM
[39]
  GI50: 20.1 µM
  TGI: 67.2 µM
[40]
  GI50: 11.5 µM
  TGI: > 100 µM
[41]
  GI50: 19.5 µM
  TGI: > 100 µM
[42]
  GI50: 36.2 µM
  TGI: > 100 µM
[43]
  GI50: 30.9 µM
  TGI: > 100 µM
[44]
  GI50: 15.9 µM
  TGI: 54.8 µM
[45]
  GI50: 12.2 µM
  TGI: 32.8 µM
[46]
  GI50: 1.64 µM
  TGI: 9.96 µM
[47]
  GI50: 14.1 µM
  TGI: 92.4 µM
[48]
  GI50: 38.5 µM
  TGI: > 100 µM
[49]
  GI50: 5.87 µM
  TGI: 57.6 µM
[50]
  GI50: 1.41 µM
  TGI: 10.7 µM
[51]
  GI50: 19.4 µM
  TGI: > 100 µM
[52]
  GI50: 2.55 µM
  TGI: 22.2 µM
[53]
  GI50: 3.44 µM
  TGI: 31.5 µM
[54]
  GI50: 5.89 µM
  TGI: 30.4 µM
[55]
  GI50: 9.31 µM
  TGI: 32.3 µM
[56]
  GI50: 11.8 µM
  TGI: > 100 µM

## COC(=O)C1=C(C)NC(C)=C(C(=O)OC)C1c1ccccc1NO
[1]
  TGI: > 100 µM
[2]
  TGI: > 100 µM
[3]
  TGI: > 100 µM
[4]
  TGI: > 100 µM
[5]
  TGI: > 100 µM
[6]
  TGI: > 100 µM
[7]
  TGI: > 100 µM
[8]
  TGI: > 100 µM
[9]
  TGI: > 100 µM
[10]
  TGI: > 100 µM
[11]
  TGI: > 100 µM
[12]
  TGI: 48.2 µM
[13]
  TGI: > 100 µM
[14]
  TGI: > 100 µM
[15]
  TGI: > 100 µM
[16]
  TGI: > 100 µM
[17]
  TGI: > 100 µM
[18]
  TGI: > 100 µM
[19]
  TGI: > 100 µM
[20]
  TGI: > 100 µM
[21]
  TGI: > 100 µM
[22]
  TGI: > 100 µM
[23]
  TGI: > 100 µM
[57]
  TGI: > 100 µM
[24]
  TGI: > 100 µM
[25]
  TGI: > 100 µM
[26]
  TGI: > 100 µM
[27]
  TGI: > 100 µM
[28]
  TGI: > 100 µM
[29]
  TGI: > 100 µM
[30]
  TGI: > 100 µM
[31]
  TGI: > 100 µM
[32]
  TGI: > 100 µM
[33]
  TGI: > 100 µM
[34]
  TGI: > 100 µM
[35]
  TGI: > 100 µM
[36]
  TGI: > 100 µM
[37]
  TGI: > 100 µM
[38]
  TGI: > 100 µM
[39]
  TGI: > 100 µM
[40]
  TGI: > 100 µM
[41]
  TGI: > 100 µM
[42]
  TGI: > 100 µM
[43]
  TGI: > 100 µM
[44]
  TGI: > 100 µM
[45]
  TGI: > 100 µM
[46]
  TGI: > 100 µM
[47]
  TGI: > 100 µM
[48]
  TGI: > 100 µM
[50]
  TGI: > 100 µM
[51]
  TGI: > 100 µM
[52]
  TGI: > 100 µM
[53]
  TGI: > 100 µM
[58]
  TGI: > 100 µM
[54]
  TGI: > 100 µM
[55]
  TGI: > 100 µM
[56]
  TGI: > 100 µM

Reference: PubChem BioAssay (NCI)
